Reference: patent publication US20240018129A1, “COMPOUNDS AS PU. 1 INHIBITORS” (PEKING UNIVERSITY, priority 2020, published 2024)

How the values were obtained:
[1] = system: bleomycin-induced pulmonary fibrosis; test: bleomycin-induced pulmonary fibrosis, preventive and therapeutic models; assay type: in vivo, mouse
Protocol: Methods: To evaluate the preventive and therapeutic effects of compound I-1 on pulmonary fibrosis, bleomycin was used to establish two animal models of pulmonary fibrosis with different drug intervention (6-8 weeks, C57BL/6, male). Bleomycin (0.025U, Code.D11063, OKA, China) was injected by a single intratracheal application. Equal volumes of sterilized saline served as a control. (I) Preventive model of bleomycin-induced pulmonary fibrosis. Compounds compound I-1, positive control DB1976, or vehicle (saline) were treated (injected intraperitoneally, i.p.) immediately after single bleomycin injection for 4 weeks (FIG. 4a). (II) Therapeutic model of bleomycin-induced pulmonary fibrosis. Mice were pre-charged with bleomycin for 11 days to induced pulmonary fibrosis, then treated with compounds compound I-1, positive control DB1976, or vehicle (saline) for 17 days, total time is 4 weeks after bleomycin treatment (FIG. 4h). After the last day of treatment of both models, mice were fasted overnight and euthanized. A part of lung was fixed with paraformaldehyde, embedded with paraffin, and then sliced for H&E and Sirius red staining to check pathological features, and Ashcroft scores. Hubner, R. H. et al. Biotechniques 44, 507-511, 514-507, doi:10.2144/000112729 (2008). Another part of lung were collected and stored in −80° C. after liquid nitrogen quick-freezing, RNA isolation (Code.R6934, OMEGA, USA), first cDNA reverse (Code.AT341, TransGen, China), SYBR mix (Code.AQ601, TransGen, China) for Q-PCR (LightCycle96, Roche) to verify several fibrosis-related genes mRNA level, such as, Col1a1 and Col1a2.

PU.1 = molecular target: T1, PU.1 (Mus musculus, UniProt P17433); test: q-PCR of TIM-3 expression in Blast-PU.1 cells (PU.1 inhibition potency); assay type: cell-based
T1 construct: EGFP (from 'PU.1-EGFP-vector'); expressed in transfected cells
From the text: An acute T cell lymphoblastic leukemia (T-ALL) disease model was used to evaluate the effect of the newly synthesized compounds on PU.1 inhibition. Pten, a famous tumor suppressor gene, was […] deleted in mouse hematopoietic stem cells and their differentiated progeny, and this would eventually lead to a progressive T-ALL in about two months from born. It is believed that immune checkpoint T cell immunoglobulin mucin-3 (TIM-3), a surface marker for the isolation of pure leukemia-initiating cells (LICs), is transcriptionally regulated by transcription factor PU.1 in the Pten-null T-ALL model. Therefore, the expression level of TIM-3 was detected and quantified to characterize the inhibition potency of the compounds after 24 h treatment of graded concentrations of compounds. Blast cells were transfected with either PU.1-EGFP-vector or EGFP-vector to yield stable cell lines blast-PU.1 and blast-EGFP, respectively. These cell lines were used for compound testing in vitro. Compounds DB1976 and DB2115 were tested as well for comparison. Blast-PU.1 and blast-EGFP are the ideal cell lines for compounds testing in vitro, since they are T-ALL blast cells with […] TIM-3 and PU.1 expression level.

N=C(N)c1ccc2nc(-c3ccc(NC(=O)[C@@H]4CCCN4C(=O)[C@@H]4CCCN4C(=O)c4ccc(-c5nc6ccc(C(=N)N)cc6[nH]5)cc4)cc3)[nH]c2c1 [Compound I-1, (S)-1-((4-(6-carbamimidoyl-1H-benzo[d]imidazol-2-yl)benzoyl)-L-prolyl)-N-(4-(6-carbamimidoyl-1H-benzo[d]imidazol-2-yl)phenyl)pyrrolidine-2-carboxamide]
pulmonary fibrosis progress (staining, Ashcroft scores, collagen deposition, Col1a1, Col1a2 mRNA) ([1]; preventive model, 5mpk i.p. for 4 weeks after single bleomycin injection): significantly prevented
bleomycin-induced pulmonary fibrosis ([1]; therapeutic model, 11 days after bleomycin then 17 days treatment, 5mpk): reversed and impede
downregulated the expression level of TIM-3 (PU.1; 10 nM, 24 h treatment, Blast-PU.1 cell line, q-PCR): 40%
activity in terms of PU.1-mediated TIM-3 inhibition, compared among tested compounds (PU.1; Blast-PU.1 cells): best activity
